Marks after values point to notes of the source that are not given here.
Molecular target: T1, Dopamine beta hydroxylase (Homo sapiens, UniProt P09172)
T1 construct: 125 μl of plasma; tissue Instituto Português do Sangue Transplantação; host or cells: human plasma from healthy donors
T1 sequence (P09172 40-617 limits assumed): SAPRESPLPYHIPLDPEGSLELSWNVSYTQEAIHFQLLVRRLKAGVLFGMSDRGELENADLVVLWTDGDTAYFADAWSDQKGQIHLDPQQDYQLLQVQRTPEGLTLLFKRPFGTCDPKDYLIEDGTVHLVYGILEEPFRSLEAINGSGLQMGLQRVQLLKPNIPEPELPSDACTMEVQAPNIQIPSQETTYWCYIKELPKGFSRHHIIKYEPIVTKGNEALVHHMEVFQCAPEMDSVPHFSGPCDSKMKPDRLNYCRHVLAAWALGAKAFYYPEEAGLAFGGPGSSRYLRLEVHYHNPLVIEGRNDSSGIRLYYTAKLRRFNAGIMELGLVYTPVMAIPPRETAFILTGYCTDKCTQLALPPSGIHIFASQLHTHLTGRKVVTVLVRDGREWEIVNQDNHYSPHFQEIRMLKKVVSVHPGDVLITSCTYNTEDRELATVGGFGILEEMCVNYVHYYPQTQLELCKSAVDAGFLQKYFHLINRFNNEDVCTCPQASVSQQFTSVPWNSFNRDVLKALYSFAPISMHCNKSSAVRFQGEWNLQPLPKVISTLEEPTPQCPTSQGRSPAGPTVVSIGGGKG
Test: Dopamine beta hydroxylase activity in human plasma
Format: biochemical
Conditions: for Plasma (1 μM), activity in % of control: inhibitor 1 μM
How it was run: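 Healthy-donor human plasma pre-incubated 10 min at 37° C with compound at final 10, 100 or 1000 nM in pH 5.0 acetate buffer with ascorbate, fumarate, pargyline, N-ethylmaleimide, catalase and copper sulfate. Tyramine substrate then added for 45 min; octopamine formed was isolated by SCX cartridge, periodate-converted and read at 330 nm; activity given as % control.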

SMILES | Plasma (0.01 μM), activity in % of control (inhibitor 0.01 μM) | Plasma (0.1 μM), activity in % of control (inhibitor 0.1 μM) | Plasma (1 μM), activity in % of control | Plasma (0.01 μM), activity in % of control, re-test (asterisked) (inhibitor 0.01 μM, re-tested under the same experimental conditions, asterisked data believed to be correct) | Plasma (0.1 μM), activity in % of control, re-test (asterisked) (inhibitor 0.1 μM, re-tested under the same experimental conditions, asterisked data believed to be correct)
Cn1c(CC(=O)N2CC[C@H](C#N)C2)c2n(c1=S)C[C@@H](c1c(F)ccc(F)c1F)C2 [Example 348, (S)-1-(2-((R)-2-methyl-3-thioxo-6-(2,3,6-trifluorophenyl)-2,5,6,7-tetrahydro-3H-pyrrolo[1,2-c]imidazol-1-yl)acetyl)pyrrolidine-3-carbonitrile] | 92.4 % of control | 44.8 % of control |  |  | 
Cn1c(CC(=O)NC2CCCC2C#N)c2n(c1=S)C[C@@H](c1c(F)ccc(F)c1F)C2 (stereo partly drawn) [Example 345, N-(2-cyanocyclopentyl)-2-((R)-2-methyl-3-thioxo-6-(2,3,6-trifluorophenyl)-2,5,6,7-tetrahydro-3H-pyrrolo[1,2-c]imidazol-1-yl)acetamide] | 77.2 % of control | 40.3 % of control |  |  | 
CN1CCN(C(=O)Cc2[nH]c(=S)n3c2C[C@@H](c2c(F)ccc(Br)c2F)C3)CC1 [Example 91, (S)-2-(6-(3-bromo-2,6-difluorophenyl)-3-thioxo-2,5,6,7-tetrahydro-3H-pyrrolo[1,2-c]imidazol-1-yl)-1-(4-methylpiperazin-1-yl)ethan-1-one] |  | 19.0 % of control | 0 % of control |  | 
[2H]C([2H])([2H])n1c(CC(=O)N2CCOCC2)c2n(c1=S)C[C@H](c1c(F)ccc(Cl)c1F)C2 [Example 460, (S)-2-(6-(3-chloro-2,6-difluorophenyl)-2-(methyl-d)-3-thioxo-2,5,6,7-tetrahydro-3H-pyrrolo[1,2-c]imidazol-1-yl)-1-morpholinoethan-1-one] | 43.9 % of control | 18.2 % of control |  |  | 
Cn1c(CC(=O)Nc2cnoc2)c2n(c1=S)C[C@@H](c1c(F)ccc(F)c1F)C2 [Example 347, (R)—N-(isoxazol-4-yl)-2-(2-methyl-3-thioxo-6-(2,3,6-trifluorophenyl)-2,5,6,7-tetrahydro-3H-pyrrolo[1,2-c]imidazol-1-yl)acetamide] | 79.0 % of control | 17.7 % of control |  |  | 
Cn1c(CC(=O)NCc2cccnc2)c2n(c1=S)C[C@H](c1c(F)ccc(Cl)c1F)C2 [Example 290, (S)-2-(6-(3-chloro-2,6-difluorophenyl)-2-methyl-3-thioxo-2,5,6,7-tetrahydro-3H-pyrrolo[1,2-c]imidazol-1-yl)-N-(pyridin-3-ylmethyl)acetamide] | 37.6 % of control | 3.8 % of control |  |  | 
Cn1c(CC(=O)Nc2nncs2)c2n(c1=S)C[C@H](c1c(F)ccc(Cl)c1F)C2 [Example 285, (S)-2-(6-(3-chloro-2,6-difluorophenyl)-2-methyl-3-thioxo-2,5,6,7-tetrahydro-3H-pyrrolo[1,2-c]imidazol-1-yl)-N-(1,3,4-thiadiazol-2-yl)acetamide] | 55.8 % of control | 22.2 % of control |  |  | 
N#CCNC(=O)Cc1[nH]c(=S)n2c1C[C@H](c1c(F)ccc(Br)c1F)C2 [Example 159, (R)-2-(6-(3-bromo-2,6-difluorophenyl)-3-thioxo-2,5,6,7-tetrahydro-3H-pyrrolo[1,2-c]imidazol-1-yl)-N-(cyanomethyl)acetamide] | 84.3 % of control | 50.9 % of control |  |  | 
F.Fc1ccc(Cl)cc1[C@]12C[C@H]1c1c(CCNCc3ccccc3)[nH]c(=S)n1C2 [Example 189, (5aS,6aR)-1-(2-(benzylamino)ethyl)-5a-(5-chloro-2-fluorophenyl)-5,5a,6,6a-tetrahydrocyclopropa[3,4]pyrrolo[1,2-c]imidazole-3(2H)-thione hydrofluoride] | 87.4 % of control | 23.2 % of control |  |  | 
Cn1c(CC(=O)NC[C@H]2CCCO2)c2n(c1=S)C[C@H](c1c(F)ccc(Cl)c1F)C2 [Example 337, 2-((S)-6-(3-chloro-2,6-difluorophenyl)-2-methyl-3-thioxo-2,5,6,7-tetrahydro-3H-pyrrolo[1,2-c]imidazol-1-yl)-N—(((R)-tetrahydrofuran-2-yl)methyl)acetamide] | 48.2 % of control | 9.4 % of control |  |  | 
Cn1c(CC(=O)N[C@H]2CC[C@H](O)CC2)c2n(c1=S)C[C@@]1(c3cc(Cl)ccc3F)C[C@@H]21 [Example 355, 2-((5aS,6aR)-5a-(5-chloro-2-fluorophenyl)-2-methyl-3-thioxo-2,3,5,5a,6,6a-hexahydrocyclopropa[3,4]pyrrolo[1,2-c]imidazol-1-yl)-N-((1r,4R)-4-hydroxycyclohexyl)acetamide] | 56.4 % of control | 14.0 % of control |  |  | 
O=C(Cc1[nH]c(=S)n2c1C[C@H](c1c(F)c(F)cc(F)c1F)C2)NC1COC1 [Example 393, (R)—N-(oxetan-3-yl)-2-(6-(2,3,5,6-tetrafluorophenyl)-3-thioxo-2,5,6,7-tetrahydro-3H-pyrrolo[1,2-c]imidazol-1-yl)acetamide] | 90.6 % of control | 65.7 % of control |  |  | 
O=C(Cc1[nH]c(=S)n2c1C[C@H](c1c(F)c(F)cc(F)c1F)C2)N[C@@H]1CCOC1 [Example 360, 2-((R)-6-(2,3,5,6-tetrafluorophenyl)-3-thioxo-2,5,6,7-tetrahydro-3H-pyrrolo[1,2-c]imidazol-1-yl)-N—((R)-tetrahydrofuran-3-yl)acetamide] | 31.8 % of control | 1.4 % of control |  | 90.1* % of control | 22.5* % of control
[2H]C([2H])([2H])n1c(CC(=O)NC2CCOCC2)c2n(c1=S)C[C@H](c1c(F)ccc(Cl)c1F)C2 [Example 469, (S)-2-(6-(3-chloro-2,6-difluorophenyl)-2-(methyl-d)-3-thioxo-2,5,6,7-tetrahydro-3H-pyrrolo[1,2-c]imidazol-1-yl)-N-(tetrahydro-2H-pyran-4-yl)acetamide] | 33.7 % of control | 1.5 % of control |  |  | 
O=C(NCc1[nH]c(=S)n2c1C[C@@H](c1c(F)ccc(Cl)c1F)C2)C1CC1 [Example 220, (S)—N-((6-(3-chloro-2,6-difluorophenyl)-3-thioxo-3,5,6,7-tetrahydro-2H-pyrrolo[1,2-c]imidazol-1-yl)methyl)cyclopropanecarboxamide] | 76.5 % of control | 17.7 % of control |  |  | 
Cl.Fc1ccc(Cl)c(F)c1[C@@H]1Cc2c(CCc3cccnc3)[nH]c(=S)n2C1 [Example 215, (S)-6-(3-chloro-2,6-difluorophenyl)-1-(2-(pyridin-3-yl)ethyl)-2,5,6,7-tetrahydro-3H-pyrrolo[1,2-c]imidazole-3-thione Hydrochloride] | 74.3 % of control | 34.2 % of control |  |  | 
Cn1c(CC(=O)N[C@H]2CCOC2)c2n(c1=S)C[C@H](c1cc(F)cc(F)c1)C2 [Example 426, 2-((S)-6-(3,5-difluorophenyl)-2-methyl-3-thioxo-2,5,6,7-tetrahydro-3H-pyrrolo[1,2-c]imidazol-1-yl)-N—((S)-tetrahydrofuran-3-yl)acetamide] | 83.5 % of control | 66.3 % of control |  |  | 
Cn1c(CC(=O)N[C@@H]2CCCOC2)c2n(c1=S)C[C@@H](c1c(F)ccc(F)c1F)C2 [Example 255, 2-((R)-2-methyl-3-thioxo-6-(2,3,6-trifluorophenyl)-2,5,6,7-tetrahydro-3H-pyrrolo[1,2-c]imidazol-1-yl)-N—((R)-tetrahydro-2H-pyran-3-yl)acetamide] | 71.8 % of control | 24.6 % of control |  |  | 
C[C@H](NC(=O)Cc1[nH]c(=S)n2c1C[C@H](c1c(F)c(F)cc(F)c1F)C2)C(N)=O [Example 26, (S)-2-(2-((R)-6-(2,3,5,6-tetrafluorophenyl)-3-thioxo-2,5,6,7-tetrahydro-3H-pyrrolo[1,2-c]imidazol-1-yl)acetamido)propanamide] |  | 64.0 % of control | 18.2 % of control |  | 

From patent publication US11434242B2, “Dopamine-b-hydroxylase inhibitors” (BIAL-PORTELA & Cª, S.A., priority 2017, dated 2022)
